Patent US9149038B2, “4-amino-6-(heterocyclic)picolinates and 6-amino-2-(heterocyclic)pyrimidine-4-carboxylates and their use as herbicides” (Dow AgroSciences LLC, priority 2013, dated 2015)
Where two headings read alike, the source gives them in different places.

Assays:
[1] = tested on: Key Broadleaf Weed and Crop Species; assay: Post-Emergent Test II: postemergent herbicidal activity, visual rating after 14 d (Table 7); assay type: in vivo; details: post-emergence, 336 h; for pest or weed control at 35 g/ha: 35 g ai/ha; for pest or weed control at 70 g/ha: 70 g ai/ha; for pest or weed control at 140 g/ha: 140 g ai/ha
Summary of the method: (§1)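 Greenhouse plants at first or second true leaf stage sprayed with compound in acetone/DMSO-based spray solution with crop oil concentrate and Triton X-155 at 187 L/ha, tested at highest rate and ½× to 1/16× dilutions; solvent blank controls. Injury rated visually 0–100% versus untreated plants after 14 d.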

[2] = tested on: Key Grass and Sedge Weeds as well as Grass Crops; assay: Post-Emergent Test II: postemergent herbicidal activity, visual rating after 14 d (Table 8); assay type: in vivo; details: post-emergence, 336 h; for pest or weed control at 35 g/ha: 35 g ai/ha; for pest or weed control at 70 g/ha: 70 g ai/ha; for pest or weed control at 140 g/ha: 140 g ai/ha
Summary of the method: as §1

[3] = lambsquarters (Chenopodium album), read-out: Visual Growth Reduction (%) 14 Days After Application CHEAL
[4] = oilseed rape, canola (Brassica napus), read-out: Visual Growth Reduction (%) 14 Days After Application BRSNN
[5] = redroot pigweed (Amaranthus retroflexus), read-out: Visual Growth Reduction (%) 14 Days After Application AMARE
[6] = sunflower (Helianthus annuus), read-out: Visual Growth Reduction (%) 14 Days After Application HELAN
[7] = velvetleaf (Abutilon theophrasti), read-out: Visual Growth Reduction (%) 14 Days After Application ABUTH
[8] = wild poinsettia (Euphorbia heterophylla), read-out: Visual Growth Reduction (%) 14 Days After Application EPHHL
[9] = barnyardgrass (Echinochloa crus-galli), read-out: Visual Growth Reduction (%) 14 Days After Application ECHCG
[10] = giant foxtail (Setaria faberi), read-out: Visual Growth Reduction (%) 14 Days After Application SETFA
[11] = maize, corn (Zea mays), read-out: Visual Growth Reduction (%) 14 Days After Application ZEAMX
[12] = rice (Oryza sativa), read-out: Visual Growth Reduction (%) 14 Days After Application ORYSA
[13] = wheat, spring (Triticum aestivum), read-out: Visual Growth Reduction (%) 14 Days After Application TRZAS
[14] = yellow nutsedge (Cyperus esculentus), read-out: Visual Growth Reduction (%) 14 Days After Application CYPES

Structure (SMILES)	pest or weed control at 35 g/ha [1, 3]	pest or weed control at 70 g/ha [1, 3]	pest or weed control at 140 g/ha [1, 3]	pest or weed control at 35 g/ha [1, 4]	pest or weed control at 70 g/ha [1, 4]	pest or weed control at 140 g/ha [1, 4]	pest or weed control at 35 g/ha [1, 5]	pest or weed control at 70 g/ha [1, 5]	pest or weed control at 140 g/ha [1, 5]	pest or weed control at 35 g/ha [1, 6]	pest or weed control at 70 g/ha [1, 6]	pest or weed control at 140 g/ha [1, 6]	pest or weed control at 35 g/ha [1, 7]	pest or weed control at 70 g/ha [1, 7]	pest or weed control at 140 g/ha [1, 7]	pest or weed control at 35 g/ha [1, 8]	pest or weed control at 70 g/ha [1, 8]	pest or weed control at 140 g/ha [1, 8]	pest or weed control at 35 g/ha [2, 9]	pest or weed control at 70 g/ha [2, 9]	further results
C=Cc1c(C(=O)OC)nc(-c2cc3c(cc2F)OCO3)c(F)c1N [Compound 31]	0 to 29%	0 to 29%	0 to 29%	0 to 29%	0 to 29%	45 to 59%	85 to 94%	85 to 94%	95 to 100%	45 to 59%	85 to 94%	85 to 94%	0 to 29%	0 to 29%	45 to 59%	95 to 100%	95 to 100%	95 to 100%	0 to 29%	60 to 74%	pest or weed control at 140 g/ha [2, 9]: 75 to 84%; pest or weed control at 35 g/ha [2, 10]: 0 to 29%; pest or weed control at 70 g/ha [2, 10]: 0 to 29%; pest or weed control at 140 g/ha [2, 10]: 0 to 29%; pest or weed control at 35 g/ha [2, 11]: 0 to 29%; pest or weed control at 70 g/ha [2, 11]: 30 to 44%; pest or weed control at 140 g/ha [2, 11]: 45 to 59%; pest or weed control at 35 g/ha [2, 12]: 0 to 29%; pest or weed control at 70 g/ha [2, 12]: 0 to 29%; pest or weed control at 140 g/ha [2, 12]: 0 to 29%; pest or weed control at 35 g/ha [2, 13]: 0 to 29%; pest or weed control at 70 g/ha [2, 13]: 0 to 29%; pest or weed control at 140 g/ha [2, 13]: 0 to 29%; pest or weed control at 35 g/ha [2, 14]: 0 to 29%; pest or weed control at 70 g/ha [2, 14]: 0 to 29%; pest or weed control at 140 g/ha [2, 14]: 0 to 29%
COC(=O)c1nc(-c2ccc3c(c2)OC(F)(F)O3)c(Cl)c(N)c1Cl [Compound 1]	0 to 29%	0 to 29%	0 to 29%	0 to 29%	0 to 29%	0 to 29%	0 to 29%	0 to 29%	0 to 29%	85 to 94%	85 to 94%	85 to 94%	0 to 29%	0 to 29%	0 to 29%	0 to 29%	0 to 29%	0 to 29%	45 to 59%	60 to 74%	pest or weed control at 140 g/ha [2, 9]: 60 to 74%; pest or weed control at 35 g/ha [2, 10]: 0 to 29%; pest or weed control at 70 g/ha [2, 10]: 45 to 59%; pest or weed control at 140 g/ha [2, 10]: 45 to 59%; pest or weed control at 35 g/ha [2, 11]: 60 to 74%; pest or weed control at 70 g/ha [2, 11]: 60 to 74%; pest or weed control at 140 g/ha [2, 11]: 60 to 74%; pest or weed control at 35 g/ha [2, 12]: 0 to 29%; pest or weed control at 70 g/ha [2, 12]: 0 to 29%; pest or weed control at 140 g/ha [2, 12]: 0 to 29%; pest or weed control at 35 g/ha [2, 13]: 0 to 29%; pest or weed control at 70 g/ha [2, 13]: 0 to 29%; pest or weed control at 140 g/ha [2, 13]: 0 to 29%; pest or weed control at 35 g/ha [2, 14]: 0 to 29%; pest or weed control at 70 g/ha [2, 14]: 0 to 29%; pest or weed control at 140 g/ha [2, 14]: 0 to 29%
